# Assay: gradient 5% acetonitrile 3 min, to 50% in 2 min, to 85% in 15 min, held 3 min, 100 µL/min
# Conditions: column: Zorbax Extend-C18 2.1 x 50 mm; eluents: water / acetonitrile, 0.1% formic acid
# Summary of the method: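 Standards, all pure, were combined into mixtures of ~100 molecules and run at 100 μL/min on a Zorbax Extend-C18 column (2.1 × 50 mm, 1.8 μm) with water and acetonitrile, each containing 0.1% formic acid. A coupled quadrupole time-of-flight mass spectrometer operated in positive and negative ionization mode. Retention time values come from computationally picked adduct peaks, each inspected manually.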
row,Compound,RP-LC retention time
1,O=C(CCc1nc(C2=CCN(Cc3ccc(Cl)cc3)CC2)no1)NCc1cccs1,688 s
2,COc1cc(CN2CCC3(CCC(CN4CCOCC4)O3)CC2)ccc1OCC(C)C (stereo unspecified),598 s
3,COc1ccc(Nc2cc(Cl)ccc2C(=O)O)cn1,978 s
4,COC(=O)c1cc(OCC(=O)Nc2ccc(OC)cc2)c2cc(OC)ccc2n1,775 s
5,Cc1noc(-c2cc(=O)n(CC(=O)Nc3cccc(Cl)c3C)c3ccccc23)n1,923 s
6,Cc1ccc(NC(=O)Cc2c(C)nn(-c3nc(-c4ccc(C)cc4)cs3)c2C)cc1,1270 s
7,CC(Oc1cc(O)c2c(=O)cc(-c3ccccc3)oc2c1)C(=O)c1ccccc1 (stereo unspecified),1210 s
8,CCCn1nnc2cc(-c3noc(C4CC(=O)N(c5ccc(C)c(C)c5)C4)n3)ccc21 (stereo unspecified),1020 s
9,CCc1ccccc1N(C)C(=O)c1cc2c(=O)n(CC)c3ccccc3n2n1,1010 s
10,CCN1c2cc(Cl)ccc2C(=O)NC12CCN(C(=O)Nc1ccc(OC)cc1C)CC2,841 s
11,O=C(NCCc1ccc(N2CCCC2)cc1)c1ccccc1,704 s
12,O=C(c1ccc2ccnc(N3CCN(c4ccccc4)CC3)c2c1)N1CCN(c2ccccn2)CC1,616 s
13,Cc1ccc(-c2noc(C3CCCN3C(=O)c3ccc(CS(=O)(=O)c4ccccc4)cc3)n2)cc1 (stereo unspecified),1010 s
14,c1ccc2oc(SCc3cn4ccsc4n3)nc2c1,653 s
15,CCNC(=O)c1ccc(-n2nc(C)cc2-c2ccccc2)cc1,749 s
16,CCn1cc(-c2ccc(Cl)cc2)cc1C(=O)NCCCN(C)C,694 s
17,CC(C)(C)C(=O)N1CC(c2nc(-c3ccc(F)cc3)no2)C2(CCOCC2)C1 (stereo unspecified),964 s
18,O=C(NCc1ccco1)C1CCN(C(=O)c2ncn3c2COC(c2ccc(Cl)cc2)C3)CC1 (stereo unspecified),753 s
19,O=C(Cn1c(=O)oc2ccccc21)NCC1CCN(C(=O)c2cc3ccccc3o2)CC1,738 s
20,COc1cccc(CNC(=O)N2CCC(N3CCN(Cc4ccccc4)C(=O)C3=O)CC2)c1,698 s
21,C=CCn1c(C)c(CC(=O)NCCCC)c(=O)n2nc(-c3ccccc3)nc12,818 s
22,C=C(C)CSc1nnc(-c2ccc(OC)cc2)o1,1030 s

# Next, values leading:
row,RP-LC retention time,Compound
1,1030 s,Cc1sc(-c2cc(C(F)(F)F)[nH]n2)cc1S(=O)(=O)NC1CCCCC1
2,655 s,O=C(Cn1cnc2nc(N3CCC(C(=O)NC4CC4)CC3)sc2c1=O)Nc1ccc(F)cc1
3,727 s,CN(C)S(=O)(=O)c1ccc(-c2nnc(C(=O)N3CCCC3)o2)cc1
4,988 s,CCCS(=O)(=O)N1CC(=O)N(c2ccc(F)cc2C)C(C)(C(=O)NC2CCCCCC2)C1 (stereo unspecified)
5,686 s,Cc1cccn2cc(-c3cccc(NS(=O)(=O)c4ccc(Cl)cc4)c3)nc12
6,706 s,CC1CCN(C(=O)C2CCCN(c3ccnc(-c4ccc(F)cc4)n3)C2)CC1 (stereo unspecified)
7,593 s,CN1CCc2nnc(C3CCN(C(=O)Nc4cc(F)cc(F)c4)C3)n2CC1 (stereo unspecified)
8,940 s,COc1ccc(NC(=O)C2CCN(S(=O)(=O)c3c(C)nn(-c4ccccc4)c3C)CC2)c(OC)c1
9,1140 s,CCc1nn(CC)c(=O)c2cc(S(=O)(=O)N3CCC(Cc4ccccc4)CC3)cn12
10,766 s,CC1(C(=O)NC2CCCCCC2)Cn2c(cc3occc32)C(=O)N1Cc1ccccn1 (stereo unspecified)
11,590 s,COc1ccc(-c2nnc(N3CCC(C(=O)NCCN4CCCC4)CC3)o2)cc1
12,881 s,COc1ccc(C(=O)N2CCCn3nc(-c4ccc(Cl)cc4)cc3C2)cn1
13,572 s,CCNc1cc(N2CCC(CCC(=O)Nc3ccc4c(c3)OCCO4)CC2)ncn1
14,840 s,CN1C(=O)c2cc(C(=O)NCc3ccc(F)cc3)nn2CC1(C)C(=O)NC1CCCCCC1 (stereo unspecified)
